Experimental data: ChEMBL document CHEMBL1201862, “PubChem BioAssay data set” (2004)
Calls of active or inactive are those of the source.

Assays:
[1] = antifungal activity, alamar blue, dry powder, counter-screen for C. neoformans cell wall antifungals, dose response (AID 743128); type: functional, organism-based
[2] = biological target: Metabotropic glutamate receptor 7 (Homo sapiens, UniProt Q14831); test: mGlu7 positive allosteric modulators, dose response, cell-based, calcium mobilization, Galpha15 (AID 743384); type: functional
Metabotropic glutamate receptor 7, sequence (Q14831 whole entry): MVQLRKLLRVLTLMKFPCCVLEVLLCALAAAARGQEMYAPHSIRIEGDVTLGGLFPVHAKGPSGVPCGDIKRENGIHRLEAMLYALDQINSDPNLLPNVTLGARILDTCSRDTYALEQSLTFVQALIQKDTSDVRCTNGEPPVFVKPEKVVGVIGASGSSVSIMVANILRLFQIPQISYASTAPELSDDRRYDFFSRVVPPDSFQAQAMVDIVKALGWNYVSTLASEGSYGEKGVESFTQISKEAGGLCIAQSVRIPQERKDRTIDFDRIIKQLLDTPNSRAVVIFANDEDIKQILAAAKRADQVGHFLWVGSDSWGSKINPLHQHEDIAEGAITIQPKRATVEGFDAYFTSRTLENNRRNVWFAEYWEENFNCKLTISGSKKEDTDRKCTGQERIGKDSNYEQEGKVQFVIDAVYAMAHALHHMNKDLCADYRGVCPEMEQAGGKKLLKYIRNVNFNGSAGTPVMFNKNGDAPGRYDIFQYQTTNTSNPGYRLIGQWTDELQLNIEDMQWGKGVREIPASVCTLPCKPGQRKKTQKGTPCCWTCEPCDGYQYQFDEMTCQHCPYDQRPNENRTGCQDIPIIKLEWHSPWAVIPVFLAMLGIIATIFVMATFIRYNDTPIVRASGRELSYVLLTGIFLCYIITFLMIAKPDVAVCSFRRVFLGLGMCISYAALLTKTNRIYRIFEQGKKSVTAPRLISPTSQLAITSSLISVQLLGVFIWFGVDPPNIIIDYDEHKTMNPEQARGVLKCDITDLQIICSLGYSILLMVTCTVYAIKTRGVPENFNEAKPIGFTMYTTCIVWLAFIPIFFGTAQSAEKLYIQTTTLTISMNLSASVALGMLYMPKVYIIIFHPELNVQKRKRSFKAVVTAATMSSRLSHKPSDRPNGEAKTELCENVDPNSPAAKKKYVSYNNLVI

[3] = Vero cell cytotoxicity, dose response, cytotoxicity control for Vif-APOBEC3G degradation inhibitor project, Vero cells (AID 1117358); type: functional; conditions: Human immunodeficiency virus 1, Vero
[4] = biological target: Muscarinic acetylcholine receptor M5 (Rattus norvegicus, UniProt P08911); test: Discovery of Novel Antagonists of Muscarinic Receptor M5: Counterscreen against RAT M5.; type: functional
Muscarinic acetylcholine receptor M5 (Rattus norvegicus, UniProt P08911), sequence (P08911 whole entry): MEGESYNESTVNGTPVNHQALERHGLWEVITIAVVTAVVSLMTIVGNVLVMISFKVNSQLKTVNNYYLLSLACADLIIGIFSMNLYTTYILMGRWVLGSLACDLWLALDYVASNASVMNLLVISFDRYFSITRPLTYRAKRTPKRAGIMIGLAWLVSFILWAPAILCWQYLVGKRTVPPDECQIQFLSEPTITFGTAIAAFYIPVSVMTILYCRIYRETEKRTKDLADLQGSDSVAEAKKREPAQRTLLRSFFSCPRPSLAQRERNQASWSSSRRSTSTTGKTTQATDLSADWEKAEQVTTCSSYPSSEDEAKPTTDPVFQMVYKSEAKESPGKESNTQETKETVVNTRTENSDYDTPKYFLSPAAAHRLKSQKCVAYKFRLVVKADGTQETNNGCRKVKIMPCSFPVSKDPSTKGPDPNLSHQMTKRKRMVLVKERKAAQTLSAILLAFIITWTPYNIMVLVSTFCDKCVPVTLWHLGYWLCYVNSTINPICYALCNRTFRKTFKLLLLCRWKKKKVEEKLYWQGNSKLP

[5] = biological target: Muscarinic acetylcholine receptor M5 (Homo sapiens, UniProt P08912); test: M5 muscarinic receptor antagonist potency, dose response, cell-based, CHO-K1 hM5, Fluo-4 calcium flux, ACh EC80 (AID 743110); type: functional
Muscarinic acetylcholine receptor M5 (Homo sapiens, UniProt P08912), sequence (P08912 whole entry): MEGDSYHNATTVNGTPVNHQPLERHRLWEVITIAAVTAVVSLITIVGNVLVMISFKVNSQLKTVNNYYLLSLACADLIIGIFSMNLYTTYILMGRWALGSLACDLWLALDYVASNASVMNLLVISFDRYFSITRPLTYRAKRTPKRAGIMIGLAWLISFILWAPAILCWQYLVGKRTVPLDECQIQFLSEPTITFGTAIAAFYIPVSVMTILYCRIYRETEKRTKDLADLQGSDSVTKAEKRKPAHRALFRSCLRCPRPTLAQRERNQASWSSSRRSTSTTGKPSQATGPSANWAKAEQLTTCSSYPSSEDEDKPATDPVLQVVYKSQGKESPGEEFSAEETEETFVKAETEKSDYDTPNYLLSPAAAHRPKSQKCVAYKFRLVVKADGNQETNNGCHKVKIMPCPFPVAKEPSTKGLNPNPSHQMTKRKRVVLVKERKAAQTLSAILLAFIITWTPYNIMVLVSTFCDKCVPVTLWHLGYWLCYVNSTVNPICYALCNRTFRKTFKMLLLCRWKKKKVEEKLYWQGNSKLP

[6] = biological target: T1, Cytochrome P450 2C19 (Homo sapiens, UniProt P33261); test: qHTS Assay for Inhibitors and Substrates of Cytochrome P450 2C19. [Related pubchem assays: 410 ]; type: ADME; conditions: read-out: Potency
T1 sequence (P33261 whole entry): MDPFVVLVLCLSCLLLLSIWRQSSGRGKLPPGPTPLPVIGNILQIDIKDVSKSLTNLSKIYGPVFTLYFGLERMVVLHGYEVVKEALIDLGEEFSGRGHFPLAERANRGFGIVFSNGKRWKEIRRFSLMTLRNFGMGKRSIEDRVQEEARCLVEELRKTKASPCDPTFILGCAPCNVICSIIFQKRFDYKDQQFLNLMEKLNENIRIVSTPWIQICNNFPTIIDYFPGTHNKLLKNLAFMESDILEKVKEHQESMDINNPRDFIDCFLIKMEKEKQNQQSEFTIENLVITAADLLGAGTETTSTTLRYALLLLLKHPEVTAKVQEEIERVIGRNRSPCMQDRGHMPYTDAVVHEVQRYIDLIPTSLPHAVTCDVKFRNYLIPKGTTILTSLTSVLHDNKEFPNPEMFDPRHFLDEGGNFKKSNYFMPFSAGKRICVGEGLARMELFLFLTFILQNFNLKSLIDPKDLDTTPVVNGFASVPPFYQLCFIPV

[7] = system: Streptococcus sp. 'group A'; test: growth inhibition of control SK(-) GAS strain, dose response, counter-screen for streptokinase expression inhibitor project, luminescence, kanamycin, BacTiterGlo, confirmation (AID 1900); type: functional, organism-based; conditions: Streptococcus sp. 'group A'
[8] = biological target: T2, Streptokinase A (Streptococcus pyogenes serotype M1, UniProt P10520); test: S. pyogenes streptokinase expression inhibitors, potency, dose response, plasminogen activation absorbance, OD405 (AID 1914); type: functional, Streptococcus pyogenes M1 GAS;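 note: secreted streptokinase activity via plasminogen activation per viability signal from cell pellet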
T2 sequence (P10520 whole entry): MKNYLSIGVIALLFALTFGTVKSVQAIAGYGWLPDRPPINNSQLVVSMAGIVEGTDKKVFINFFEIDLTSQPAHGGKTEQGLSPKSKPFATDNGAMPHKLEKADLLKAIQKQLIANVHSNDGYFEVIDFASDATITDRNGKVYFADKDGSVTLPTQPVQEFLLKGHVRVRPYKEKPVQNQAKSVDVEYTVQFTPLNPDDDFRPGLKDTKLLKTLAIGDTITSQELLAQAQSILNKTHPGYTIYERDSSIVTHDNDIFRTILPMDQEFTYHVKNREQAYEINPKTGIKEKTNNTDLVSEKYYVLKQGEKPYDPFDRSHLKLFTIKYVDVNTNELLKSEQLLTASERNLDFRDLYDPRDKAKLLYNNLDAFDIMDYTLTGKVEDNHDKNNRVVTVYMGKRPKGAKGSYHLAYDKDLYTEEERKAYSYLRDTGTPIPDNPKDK

[9] = system: Streptococcus; test: Group A Streptococcus viability loss, dose response, counter-screen for streptokinase expression inhibitor project, luminescence, BacTiterGlo (AID 1915); type: functional, organism-based; conditions: Streptococcus;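 note: potency for reduction of bacterial viability or growth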
[10] = biological target: T1, Cytochrome P450 2C19; test: Cytochrome panel assay with activity outcomes. Panel member name: p450-cyp2c19 Compounds with AC50 equal or less than 10 uM are considered active; type: functional; conditions: read-out: AC50
[11] = biological target: T3, Cytochrome P450 3A4 (Homo sapiens, UniProt P08684); conditions: Potency
T3 sequence (P08684 whole entry): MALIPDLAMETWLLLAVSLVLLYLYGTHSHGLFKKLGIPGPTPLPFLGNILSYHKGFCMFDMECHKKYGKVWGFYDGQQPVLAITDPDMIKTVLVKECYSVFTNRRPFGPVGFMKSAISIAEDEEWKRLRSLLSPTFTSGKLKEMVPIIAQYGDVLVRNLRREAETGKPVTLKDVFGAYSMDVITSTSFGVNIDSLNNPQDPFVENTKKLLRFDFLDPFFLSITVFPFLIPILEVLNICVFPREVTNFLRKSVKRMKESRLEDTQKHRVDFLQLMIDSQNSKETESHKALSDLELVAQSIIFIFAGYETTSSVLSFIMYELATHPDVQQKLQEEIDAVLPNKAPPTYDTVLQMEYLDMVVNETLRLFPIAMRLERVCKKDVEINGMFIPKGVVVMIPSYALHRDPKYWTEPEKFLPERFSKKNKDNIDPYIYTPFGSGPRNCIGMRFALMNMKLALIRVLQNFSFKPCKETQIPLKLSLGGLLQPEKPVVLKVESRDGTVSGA

[12] = biological target: T3, Cytochrome P450 3A4
[13] = biological target: Voltage-gated inwardly rectifying potassium channel KCNH2 (Homo sapiens, UniProt Q12809); conditions: Potency;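 note: confirmatory quantitative high-throughput screen measuring inhibition of hERG channel activity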
Voltage-gated inwardly rectifying potassium channel KCNH2, sequence (Q12809 whole entry): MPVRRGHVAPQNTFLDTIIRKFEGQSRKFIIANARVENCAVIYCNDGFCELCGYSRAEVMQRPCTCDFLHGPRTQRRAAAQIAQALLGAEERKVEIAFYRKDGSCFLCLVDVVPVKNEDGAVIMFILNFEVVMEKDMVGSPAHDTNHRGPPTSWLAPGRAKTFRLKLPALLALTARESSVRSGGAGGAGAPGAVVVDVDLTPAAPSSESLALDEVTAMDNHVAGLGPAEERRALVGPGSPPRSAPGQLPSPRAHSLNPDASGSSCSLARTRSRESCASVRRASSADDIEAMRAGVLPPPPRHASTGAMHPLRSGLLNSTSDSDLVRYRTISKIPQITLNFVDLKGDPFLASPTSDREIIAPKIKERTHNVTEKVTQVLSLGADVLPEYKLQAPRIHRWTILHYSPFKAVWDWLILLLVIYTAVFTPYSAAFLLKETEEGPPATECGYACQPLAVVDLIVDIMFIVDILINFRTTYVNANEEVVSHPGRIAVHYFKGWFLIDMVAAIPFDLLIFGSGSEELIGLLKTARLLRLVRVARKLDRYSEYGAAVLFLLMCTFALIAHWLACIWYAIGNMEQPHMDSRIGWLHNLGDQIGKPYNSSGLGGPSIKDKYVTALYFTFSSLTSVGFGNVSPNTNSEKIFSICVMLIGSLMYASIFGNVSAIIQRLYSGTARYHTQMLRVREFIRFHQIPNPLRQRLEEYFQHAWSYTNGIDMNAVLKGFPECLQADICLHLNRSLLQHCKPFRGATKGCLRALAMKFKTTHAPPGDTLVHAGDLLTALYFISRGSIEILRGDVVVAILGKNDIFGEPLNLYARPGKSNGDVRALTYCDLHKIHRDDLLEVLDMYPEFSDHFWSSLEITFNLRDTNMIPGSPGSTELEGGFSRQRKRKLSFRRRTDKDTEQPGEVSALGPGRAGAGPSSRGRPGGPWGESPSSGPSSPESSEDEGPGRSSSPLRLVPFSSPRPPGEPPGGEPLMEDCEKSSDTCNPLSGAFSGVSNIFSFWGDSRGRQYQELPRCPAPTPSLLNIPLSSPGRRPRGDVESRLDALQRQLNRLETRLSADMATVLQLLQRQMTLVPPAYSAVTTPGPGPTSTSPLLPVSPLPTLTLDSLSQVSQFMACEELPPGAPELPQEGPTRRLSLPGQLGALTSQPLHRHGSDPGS

[14] = biological target: Paired box protein Pax-8 (Homo sapiens, UniProt Q06710); test: inhibitors of PAX8-driven TPO luciferase reporter, dose response, RMG-I cells, cherry-pick (AID 687027); type: functional, cell-based;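 note: luciferase reporter driven by Pax8 target thyroperoxidase promoter measured by SteadyGlo luminescence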
Paired box protein Pax-8, sequence (Q06710 whole entry): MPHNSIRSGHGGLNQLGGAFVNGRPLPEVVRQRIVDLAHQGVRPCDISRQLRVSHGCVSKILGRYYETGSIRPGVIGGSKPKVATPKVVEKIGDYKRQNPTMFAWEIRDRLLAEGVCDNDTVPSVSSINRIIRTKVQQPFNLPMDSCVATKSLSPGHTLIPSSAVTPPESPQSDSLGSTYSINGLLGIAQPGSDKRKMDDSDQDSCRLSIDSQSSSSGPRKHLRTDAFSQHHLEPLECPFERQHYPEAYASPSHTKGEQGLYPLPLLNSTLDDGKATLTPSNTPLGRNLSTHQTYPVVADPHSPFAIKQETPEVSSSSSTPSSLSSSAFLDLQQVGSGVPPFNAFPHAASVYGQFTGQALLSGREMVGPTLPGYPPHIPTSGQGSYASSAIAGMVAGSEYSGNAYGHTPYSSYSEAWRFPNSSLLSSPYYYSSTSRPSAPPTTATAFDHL

[15] = PAX2 cell-based inhibition, dose response, selectivity assay for PAX8 inhibitor project, plate reader, dry powder samples (AID 743048); type: functional;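 note: HEK293 cells carrying a WT1 promoter luciferase reporter driven by expressed Pax2; potency is for inhibition of Pax2 driven reporter signal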
[16] = cytotoxicity in COV362 ovarian cancer cells, dose response, cytotoxicity control for PAX8 inhibitor project, cell-based, plate reader, dry powder, SA12 (AID 743144); type: functional
[17] = IOSE-T80 ovarian epithelial cell cytotoxicity, dose response, cytotoxicity control for PAX8 inhibitor project, plate reader, dry powder samples (AID 743045); type: functional, cell-based
[18] = A2780 ovarian cancer cell cytotoxicity, dose response, cytotoxicity control, plate reader, dry powder samples (AID 743046); type: functional, cell-based
[19] = NIH:OVCAR-3 ovarian cancer cell cytotoxicity, dose response, PAX8 inhibitor project, plate reader, dry powder samples (AID 743044); type: functional, cell-based
[20] = PAX5 activity inhibitors, dose response, selectivity assay for PAX8 inhibitor project, cell-based, plate reader, dry powder samples (AID 743047); type: functional;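 note: HEK293 cells carrying a Pax5 driven CD19 promoter luciferase reporter; potency of inhibitors that lower reporter luminescence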
[21] = IGROV1 ovarian cancer cell cytotoxicity, dose response, PAX8 inhibitor project, plate reader, dry powder samples (AID 743043); type: functional, cell-based; conditions: IGROV-1
[22] = cytotoxicity in OVCAR4 cells, dose response, cytotoxicity control for PAX8 inhibitor project, cell-based, plate reader, dry powder, SA11 (AID 743150); type: functional; conditions: OVCAR-4
[23] = cytotoxicity in COV434 cells, dose response, cytotoxicity control for PAX8 inhibitor project, cell-based, plate reader, dry powder, SA7 (AID 743145); type: functional
[24] = cytotoxicity in OV-90 ovarian cancer cells, dose response, PAX8 inhibitor project, cell-based, plate reader, dry powder, SA8 (AID 743149); type: functional
[25] = cytotoxicity in OVCAR8 ovarian cancer cells, dose response, PAX8 project, cell-based, plate reader, dry powder samples (AID 743197); type: functional; conditions: OVCAR-8
[26] = cytotoxicity dependent on PAX8, dose response, cell-based, plate reader, dry powder (AID 743049); type: functional
[27] = inhibitors of Vif binding to APOBEC3G peptide, primary screen, biochemical, TR-FRET, GST-Vif 1-94, biotin-A3G peptide, dose response retest (AID 1117319); type: functional;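 note: TR-FRET signal of purified GST-Vif binding a biotinylated A3G peptide; inhibitors lower the FRET signal by blocking Vif and A3G binding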
[28] = biological target: SWI/SNF-related matrix-associated actin-dependent regulator of chromatin subfamily A member 2 (Homo sapiens, UniProt P51531); test: Luminescence-based cell-based high throughput dose response assay to identify activators of the function of SWI/SNF related, matrix associated, actin dependent regulator of chromatin, subfamily a, member 2 (SMARCA2, BRM).; type: functional
[29] = Counterscreen for activators of the function of SWI/SNF related, matrix associated, actin dependent regulator of chromatin, subfamily a, member 2 (SMARCA2, BRM): Luminescence-based cell-based high throughput dose response assay to identify non-selective compounds using the VP16 reporter assay.; type: functional
[30] = HepG2 cell cytotoxicity, dose response, cytotoxicity control, ATP luminescence, cherry-pick, set 6 (AID 1053125); type: functional, cell-based
[31] = cells; conditions: A549
[32] = cells; conditions: HEK293
[33] = A549 cell cytotoxicity, dose response, cytotoxicity control, plate reader, dry powder, set 6 (AID 743312); type: functional, cell-based
[34] = HEK293T cell cytotoxicity, dose response, cytotoxicity control, plate reader, dry powder, set 10 (AID 743315); type: functional, cell-based; conditions: HEK293
[35] = cells; conditions: HEK293; remark: listed apart in the source
[36] = A Cell-Based Confirmatory Screen for Compounds that Inhibit VEEV, TC-83 (5).; type: functional
[37] = A Cell-Based Confirmatory Screen for Compounds that Inhibit VEEV, TC-83 (3).; type: functional
[38] = A Cell-Based Confirmatory Screen for Compounds that Inhibit VEEV TC-83 (4).; type: functional

Cc1ccc(OCCn2cnc3ccccc32)cc1
AC50 [1]: 38.9 µM (active)

COc1ccc(CSCC(=O)c2cc(C)n(-c3ccc(OC(F)F)cc3)c2C)cc1
EC50 [2]: 10 µM (active)

COc1c(OC(C)=O)ccc(/C=C/c2ccc3ccccc3n2)c1[N+](=O)[O-]
CC50 [3]: 33.2 µM (active)

CC(=O)c1cccc(NCc2cc(C(=O)N(C)C(C)c3ccccn3)no2)c1 (stereo not drawn)
IC50 [4]: 7.11 µM (active) | IC50 [5]: 6.77 µM (active)

CCCN(CC1CC1)c1nc(C)nc(Nc2c(Cl)cc(Cl)cc2Cl)c1Cl
AC50 [6]: 7.94 µM (inconclusive) | EC50 [7]: 1.39 µM (active) | EC50 [8]: 1.31 µM (active) | EC50 [9]: 15.2 µM (active) | AC50 [10]: 31.6 µM (inconclusive) | AC50 [11]: 12.6 µM (inconclusive) | AC50 [12]: 15.8 µM (inconclusive) | AC50 [13]: 14.1 µM (inconclusive)

CN(C[C@H]1N[C@@H](CO)[C@@H]1c1ccc(-c2cccnc2)cc1)C(=O)c1ccccc1
AC50 [14]: 2.89 µM (active) | AC50 [15]: > 32 µM (inactive) | AC50 [16]: 7.42 µM (active) | AC50 [17]: 23.4 µM (active) | AC50 [18]: 13.8 µM (active) | AC50 [19]: 7.22 µM (active) | AC50 [20]: 15.8 µM (active) | AC50 [21]: 5.83 µM (active) | AC50 [22]: 5.14 µM (active) | AC50 [23]: 11.3 µM (active) | AC50 [24]: 14.5 µM (active) | AC50 [25]: 8.64 µM (active) | AC50 [26]: 9.82 µM (active)

Cc1cc(NC(=O)Cn2cnc3c(nnn3-c3cccc(F)c3)c2=O)no1
IC50 [27]: > 100 µM (active)

N#Cc1ccc(/C=C\c2[nH]ccc3c4ccccc4nc2-3)cc1
EC50 [28]: > 91.2 µM (inactive) | EC50 [29]: > 91.2 µM (inactive) | AC50 [30]: 40.7 µM (active) | AC50 [31]: 24.2 µM (active) | AC50 [32]: > 52 µM (inactive)

CC(C)(C)c1ccc(OCCn2cnc3ccccc32)cc1
AC50 [33]: 23.9 µM (active) | AC50 [34]: 15.9 µM (active) | AC50 [35]: 20.9 µM (active)

CN1CCN(Cc2nc3ccc([N+](=O)[O-])cc3c(=O)n2-c2ccccc2F)CC1
IC50 [36]: 0.65 µM (active) | IC50 [37]: < 0.72 µM (active) | IC50 [38]: 0.74 µM (active)
